The text below walks through data of US7323465B2, “Alkansulfonamides as endothelin antagonists” (Actelion Pharmaceuticals Ltd., priority 2002, dated 2008).

In test [1] the target is T1, human recombinant ETB receptors (Homo sapiens, UniProt P24530).
T1 construct: expressed in transfected cells; host or cells: CHO cells (microsomal membranes)
T1 sequence (P24530 27-442): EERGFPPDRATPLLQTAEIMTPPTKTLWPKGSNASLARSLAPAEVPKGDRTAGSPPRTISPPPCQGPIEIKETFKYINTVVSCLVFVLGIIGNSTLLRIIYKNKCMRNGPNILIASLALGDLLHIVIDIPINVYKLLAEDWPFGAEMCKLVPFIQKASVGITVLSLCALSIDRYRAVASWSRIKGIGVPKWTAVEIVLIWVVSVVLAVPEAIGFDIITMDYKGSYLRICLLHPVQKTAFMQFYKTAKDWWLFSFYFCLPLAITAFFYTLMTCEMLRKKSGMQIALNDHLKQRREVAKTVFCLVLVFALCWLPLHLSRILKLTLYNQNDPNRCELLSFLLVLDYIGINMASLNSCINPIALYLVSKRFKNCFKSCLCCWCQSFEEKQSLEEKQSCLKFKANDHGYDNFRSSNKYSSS
Description: Inhibition of [125I]ET-1 binding to membranes from CHO cells carrying human ETB receptors. As to the method:
(§1) 1) Inhibition of Endothelin Binding to Membranes from CHO Cells Carrying Human ET Receptors:
(§2) For competition binding studies, membranes of CHO cells expressing human recombinant ETA or ETB receptors were used.
(§3) The assay was performed in 200 uL 50 mM Tris/HCl buffer, pH 7.4, including 25 mM MnCl2, 1 mM EDTA and 0.5% (w/v) BSA in polypropylene microtiter plates. […] After 2 h, the membranes were filtered on filterplates containing GF/C filters (Unifilterplates from Canberra Packard S.A. Zürich, Switzerland). To each well, 50 uL of scintillation cocktail was added (MicroScint 20, Canberra Packard S.A. Zürich, Switzerland) and the filter plates counted in a microplate counter (TopCount, Canberra Packard S.A. Zürich, Switzerland).
(§4) All the test compounds were dissolved, diluted and added in DMSO.

The target in test [2] is T2, human recombinant ETA receptors (Homo sapiens, UniProt P25101).
T2 construct: expressed in transfected cells; host or cells: CHO cells (microsomal membranes)
T2 sequence (P25101 21-427): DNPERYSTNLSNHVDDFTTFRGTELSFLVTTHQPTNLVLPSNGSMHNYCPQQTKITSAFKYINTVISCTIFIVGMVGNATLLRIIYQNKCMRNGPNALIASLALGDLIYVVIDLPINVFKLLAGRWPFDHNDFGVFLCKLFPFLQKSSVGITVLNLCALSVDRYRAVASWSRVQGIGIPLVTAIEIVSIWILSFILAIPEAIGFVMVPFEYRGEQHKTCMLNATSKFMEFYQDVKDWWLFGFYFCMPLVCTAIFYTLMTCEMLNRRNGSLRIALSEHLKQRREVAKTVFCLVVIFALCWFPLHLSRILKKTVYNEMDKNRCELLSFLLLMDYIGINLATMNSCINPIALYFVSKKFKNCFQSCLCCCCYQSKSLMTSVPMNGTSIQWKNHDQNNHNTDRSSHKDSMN
Description: Inhibition of [125I]ET-1 binding to membranes from CHO cells carrying human ETA receptors. As to the method: as §1, §2, §3, §4

Each structure is given as a SMILES string. Bounds are passed on as bounds.
Note: 2.5% DMSO.

On to `COc1cnc(OCCOc2ncnc(NS(C)(=O)=O)c2-c2ccc(Br)cc2)nc1` [Example 54], for which the IC50 (in general, the point on the concentration scale where inhibition reaches its midpoint) in test [1] was more than 1000 nM; in test [2], 18 nM.
For `CCCS(=O)(=O)Nc1ncnc(OCCOc2ncc(SC)cn2)c1Oc1ccccc1OC` [Example 34], in that order: 159 nM and 6.5 nM.
For `CCCS(=O)(=O)Nc1ncnc(OCCOc2ncc(Br)cn2)c1Oc1ccccc1OC` [Example 32], in that order: more than 1000 nM and 11 nM.
As for `CCCCS(=O)(=O)Nc1ncnc(OCCOc2ncc(Br)cn2)c1Oc1cccc(OC)c1` [Example 28], the results for the IC50 in test [1] and in test [2] were 595 nM and 2.9 nM, respectively.
For `COc1cnc(OCCOc2ncnc(NS(C)(=O)=O)c2Oc2ccccc2OC)nc1` [Example 18], in that order: 841 nM and 205 nM.
Consider `CCS(=O)(=O)Nc1ncnc(OCCOc2ncc(Br)cn2)c1-c1ccc(C)cc1` [Example 1, ethanesulfonic acid {6-[2-(5-bromo-pyrimidin-2-yloxy)-ethoxy]-5-p-tolyl-pyrimidin-4-yl}-amide], for which the IC50 in test [1] is more than 1000 nM; in test [2], 3.96 nM.
For `COc1ccccc1Oc1c(NS(C)(=O)=O)ncnc1OCCOc1ncc(SC)cn1` [Example 19], in that order: 155 nM and 22 nM.
For `COc1ccccc1Oc1c(NS(C)(=O)=O)ncnc1OCCOc1ncc(S(C)(=O)=O)cn1` [Example 20], in that order: more than 1000 nM and 81 nM.
For `Cc1ccc(-c2c(NS(C)(=O)=O)ncnc2OCCOc2ncc(Br)cn2)cc1` [Example 47], in that order: more than 1000 nM and 2.9 nM.
